Test results published in paper PMC9969401, “Discovery of 2-(3-Benzamidopropanamido)thiazole-5-carboxylate Inhibitors of the Kinesin HSET (KIFC1) and the Development of Cellular Target Engagement Probes” (Journal of Medicinal Chemistry, 2023).

Legend:
[1] = test system: non-centrosome amplified DLD1 (4N) cells; test: Multipolar spindle assay (4N cell line); format: cell-based, human; conditions: for % Multipolarity above baseline @ 15 mM (4N cells): supplementary CSV; for % multipolarity above baseline @ 15 μM (4N cells): 4N DLD1 cells (Table 4)
Summary of the method: (§1)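 4NCA cells came from 2N DLD1 treated 24 h with 2 μΜ DCB then released 24 h; 4N DLD1 used directly. After 3.5 h arrest with 8 μM pro-TAME, compounds were added with 8 μM MG-132; fixed cells stained for aurora A, pHH3 and DAPI, imaged, and percentage multipolar (>2 poles) mitoses scored.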

[2] = test system: centrosome-amplified (4NCA) DLD1 cells; test: Multipolar spindle assay (4NCA cell line); format: cell-based, human
Summary of the method: as §1

[3] = 15 μM, 4NCA DLD1 cells (Table 4)
[4] = 15 µM, 4NCA cells, supplementary CSV

| SMILES | % Multipolarity above baseline @ 15 mM (4N cells) ([1]; 15 μM) | % multipolarity above baseline @ 15 μM (4N cells) [1] | % multipolarity above baseline @ 15 μM (4NCA cells) [2, 3] | % multipolarity above baseline @ 15 μM (4NCA cells) [2, 4] | effect on multipolar mitoses (4N), in words ([1]; 15 μM, non-centrosome amplified DLD1 (4N) cell line) | increase in mitotic spindle multipolarity (4NCA) ([2]; 15 μM, centrosome-amplified (4NCA) DLD1 cell line) |
| --- | --- | --- | --- | --- | --- | --- |
| CCCOC(=O)c1sc(NC(=O)C[C@H](CCCN(C)C)NC(=O)c2cccc(-c3noc(C)n3)c2)nc1C [Compound 36, Propyl (S)-2-(6-(Dimethylamino)-3-(3-(5-methyl-1,2,4-oxadiazol-3-yl)benzamido)hexanamido)-4-methylthiazole-5-carboxylate] | 1% | 1% | 15% | 15% | – | – |
| CCCOC(=O)c1sc(NC(=O)C[C@H](CCCNC)NC(=O)c2cccc(-c3noc(C)n3)c2)nc1C [Compound 35, Propyl (S)-4-Methyl-2-(3-(3-(5-methyl-1,2,4-oxadiazol-3-yl)benzamido)-6-(methylamino)hexanamido)thiazole-5-carboxylate] | 1% | 1% | 11% | 11% | – | – |
| CCCOC(=O)c1sc(NC(=O)CCNC(=O)c2cccc(-c3noc(C)n3)c2)nc1C [Compound 32, Propyl 4-Methyl-2-(3-(3-(5-methyl-1,2,4-oxadiazol-3-yl)benzamido)propanamido)thiazole-5-carboxylate] | 2% | 2% | 21% | 21% | minimal effect | 21% |
